According to US10472364B2 (Calithera Biosciences, Inc., priority 2016, dated 2019):

Target: endogenous, cell-bound CD73 on SK-MEL-28 cells (Homo sapiens (Human), UniProt P21589)
Assay: Inhibition of endogenous, cell-bound CD73 enzyme activity in SK-MEL-28 cells (Malachite Green)
Type: cell-based
Settings: 100 μM AMP, 30 minutes at room temperature
Procedure: The day before the experiment, 5000 cells were plated per well in a 96-well plate. Cells were washed twice with […] reaction buffer (20 mM HEPES, pH 7.4, 125 mM NaCl, 1 mM KCl, 2 mM MgCl2, 10 mM glucose) to remove residual inorganic phosphate. After washing, assays contained serial dilutions of test compounds and 100 μM of AMP in a total volume of 200 μL reaction buffer, with a final DMSO concentration≤0.5%. After 30 minutes at room temperature, supernatant was removed from the cells. […] The concentration of inorganic phosphate was determined using a phosphate standard curve to determine IC50.

Chain of endogenous, cell-bound CD73 on SK-MEL-28 cells (P21589 27-574): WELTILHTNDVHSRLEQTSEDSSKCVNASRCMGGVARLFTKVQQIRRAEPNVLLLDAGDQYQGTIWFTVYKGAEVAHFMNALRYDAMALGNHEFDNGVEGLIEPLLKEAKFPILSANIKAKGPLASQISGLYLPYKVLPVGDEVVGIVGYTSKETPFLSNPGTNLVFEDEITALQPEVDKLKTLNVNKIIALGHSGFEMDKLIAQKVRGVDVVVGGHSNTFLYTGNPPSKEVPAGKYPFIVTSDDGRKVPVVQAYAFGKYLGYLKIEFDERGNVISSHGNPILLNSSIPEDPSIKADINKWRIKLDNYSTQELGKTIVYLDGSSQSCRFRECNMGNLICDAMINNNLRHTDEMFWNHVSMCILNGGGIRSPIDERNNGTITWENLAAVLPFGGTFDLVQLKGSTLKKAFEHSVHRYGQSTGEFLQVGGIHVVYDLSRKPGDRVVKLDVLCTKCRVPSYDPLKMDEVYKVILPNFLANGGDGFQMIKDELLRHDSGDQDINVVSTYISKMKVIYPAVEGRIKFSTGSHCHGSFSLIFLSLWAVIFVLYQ

Row | IC50 [nM] | Compound
1 | 5840 | Nc1nc(Cl)nc2c1ncn2[C@@H]1O[C@H](COC(CC(=O)O)(C(=O)O)C(=O)O)[C@@H](O)[C@@H]1F [compound 19, 1-(((2R,3R,4S,5R)-5-(6-amino-2-chloro-9H-purin-9-yl)-4-fluoro-3-hydroxytetrahydrofuran-2-yl)methoxy)ethane-1,1,2-tricarboxylic acid]
2 | 853 | Nc1nc(Cl)nc2c1ncn2[C@@H]1O[C@H](COC(Cc2ccc(C(=O)O)c(F)c2)(C(=O)O)C(=O)O)[C@@H](O)[C@@H]1F [compound 58, 2-(((2R,3R,4S,5R)-5-(6-amino-2-chloro-9H-purin-9-yl)-4-fluoro-3-hydroxytetrahydro-furan-2-yl)methoxy)-2-(4-carboxy-3-fluorobenzyl)malonic acid]
3 | 2320 | Nc1nc(Cl)nc2c1ncn2[C@@H]1O[C@H](COC(Cc2ccc(C(F)(F)F)nc2)(C(=O)O)C(=O)O)[C@@H](O)[C@@H]1F [compound 32, 2-(((2R,3R,4S,5R)-5-(6-amino-2-chloro-9H-purin-9-yl)-4-fluoro-3-hydroxytetrahydrofuran-2-yl)methoxy)-2-((6-(trifluoromethyl)pyridin-3-yl)methyl)malonic acid]
4 | 6980 | Nc1nc(Cl)nc2c1ncn2[C@@H]1O[C@H](COC(Cc2ccc(C(F)(F)F)o2)(C(=O)O)C(=O)O)[C@@H](O)[C@@H]1F [compound 59, 2-(((2R,3R,4S,5R)-5-(6-amino-2-chloro-9H-purin-9-yl)-4-fluoro-3-hydroxytetrahydro-furan-2-yl)methoxy)-2-((5-(trifluoromethyl)-furan-2-yl)methyl)malonic acid]
5 | 202 | Nc1nc(Cl)nc2c1ncn2[C@@H]1O[C@H](COC(Cc2ccc(OCC(=O)O)cc2)(C(=O)O)C(=O)O)[C@@H](O)[C@@H]1F [compound 92, 2-(((2R,3R,4S,5R)-5-(6-amino-2-chloro-9H-purin-9-yl)-4-fluoro-3-hydroxytetrahydrofuran-2-yl)methoxy)-2-(4-(carboxymethoxy)benzyl)malonic acid]
6 | 3380 | N#CCC(OC[C@H]1O[C@@H](n2cnc3c(N)nc(Cl)nc32)[C@@H](F)[C@@H]1O)(C(=O)O)C(=O)O [compound 33, 2-(((2R,3R,4S,5R)-5-(6-amino-2-chloro-9H-purin-9-yl)-4-fluoro-3-hydroxytetrahydrofuran-2-yl)methoxy)-2-(cyanomethyl)malonic acid]
7 | 2190 | Nc1nc(Cl)nc2c1ncn2[C@@H]1O[C@H](COC(Cc2cccc(Oc3ccccc3)c2)(C(=O)O)C(=O)O)[C@@H](O)[C@@H]1F [compound 13, 2-(((2R,3R,4S,5R)-5-(6-amino-2-chloro-9H-purin-9-yl)-4-fluoro-3-hydroxytetrahydrofuran-2-yl)methoxy)-2-(3-phenoxybenzyl)malonic acid]
8 | 1580 | Nc1nc(Cl)nc2c1ncn2[C@@H]1O[C@H](COC(Cc2cccc(OC(F)(F)F)c2)(C(=O)O)C(=O)O)[C@@H](O)[C@@H]1F [compound 15, 2-(((2R,3R,4S,5R)-5-(6-amino-2-chloro-9H-purin-9-yl)-4-fluoro-3-hydroxytetrahydrofuran-2-yl)methoxy)-2-(3-(trifluoromethoxy)benzyl)malonic acid]
9 | 305 | Nc1nc(Cl)nc2c1ncn2[C@@H]1O[C@H](COC(Cc2csc(C(=O)O)c2)(C(=O)O)C(=O)O)[C@@H](O)[C@@H]1F [compound 76, 2-(((2R,3R,4S,5R)-5-(6-amino-2-chloro-9H-purin-9-yl)-4-fluoro-3-hydroxytetrahydro-furan-2-yl)methoxy)-2-((5-carboxythiophen-3-yl)methyl)malonic acid]
10 | 4340 | Nc1nc(Cl)nc2c1ncn2[C@@H]1O[C@H](COC(Cc2ccccc2)(C(=O)O)C(=O)O)[C@@H](N)[C@H]1O [compound 51, 2-(((2S,3S,4R,5R)-3-amino-5-(6-amino-2-chloro-9H-purin-9-yl)-4-hydroxytetrahydrofuran-2-yl)methoxy)-2-benzylmalonic acid]
11 | 2110 | COC(=O)C(Cc1ccc(-c2ccccc2)cc1)(OC[C@H]1O[C@@H](n2cnc3c(N)nc(Cl)nc32)[C@@H](F)[C@@H]1O)C(=O)O (single isomer, unassigned) [compound 81]
12 | 1480 | CCOC(=O)C(Cc1ccc(OC(F)(F)F)cc1)(OC[C@H]1O[C@@H](n2cnc3c(N)nc(Cl)nc32)[C@@H](F)[C@@H]1O)C(=O)O (single isomer, unassigned) [compound 38]
13 | 1020 | Nc1nc(Cl)nc2c1ncn2[C@@H]1O[C@H](COC(Cc2cccc(C(F)(F)F)c2)(C(=O)O)C(=O)O)[C@@H](O)[C@@H]1F [compound 16, 2-(((2R,3R,4S,5R)-5-(6-amino-2-chloro-9H-purin-9-yl)-4-fluoro-3-hydroxytetrahydrofuran-2-yl)methoxy)-2-(3-(trifluoromethyl)benzyl)malonic acid]
14 | 153 | N#Cc1ccc(CC(OC[C@H]2O[C@@H](n3cnc4c(N)nc(Cl)nc43)[C@@H](F)[C@@H]2O)(C(=O)O)C(=O)O)cc1 [compound 34]
15 | 924 | Nc1nc(Cl)nc2c1ncn2[C@@H]1O[C@H](COC(Cc2csc(C(=O)O)n2)(C(=O)O)C(=O)O)[C@@H](O)[C@@H]1F [compound 68, 2-(((2R,3R,4S,5R)-5-(6-amino-2-chloro-9H-purin-9-yl)-4-fluoro-3-hydroxytetrahydro-furan-2-yl)methoxy)-2-((2-carboxythiazol-4-yl)methyl)malonic acid]
16 | 196 | Nc1nc(Cl)nc2c1ncn2[C@@H]1O[C@H](COC(Cc2ccc(OCc3ccccc3)cc2)(C(=O)O)C(=O)O)[C@@H](O)[C@@H]1F [compound 65, 2-(((2R,3R,4S,5R)-5-(6-amino-2-chloro-9H-purin-9-yl)-4-fluoro-3-hydroxytetrahydrofuran-2-yl)methoxy)-2-(4-(benzyloxy)benzyl)malonic acid]
17 | 9920 | [N-]=[N+]=Nc1nc(N)c2ncn([C@@H]3O[C@H](COC(Cc4cccc(-c5nnn[nH]5)c4)(C(=O)O)C(=O)O)[C@@H](O)[C@@H]3F)c2n1 [compound 43]
18 | 5200 | Nc1nc(Cl)nc2c1ncn2[C@@H]1O[C@H](COC(Cc2cc(C(=O)O)no2)(C(=O)O)C(=O)O)[C@@H](O)[C@@H]1F [compound 83, 2-(((2R,3R,4S,5R)-5-(6-amino-2-chloro-9H-purin-9-yl)-4-fluoro-3-hydroxytetrahydrofuran-2-yl)methoxy)-2-((3-carboxyisoxazol-5-yl)methyl)malonic acid]
19 | 512 | Nc1nc(Cl)nc2c1ncn2[C@@H]1O[C@H](COC(Cc2ccc(C(F)(F)F)c(F)c2)(C(=O)O)C(=O)O)[C@@H](O)[C@@H]1F [compound 60, 2-(((2R,3R,4S,5R)-5-(6-amino-2-chloro-9H-purin-9-yl)-4-fluoro-3-hydroxytetrahydro-furan-2-yl)methoxy)-2-(3-fluoro-4-(trifluoromethyl)benzyl)malonic acid]
20 | 162 | Nc1nc(Cl)nc2c1ncn2[C@@H]1O[C@H](COC(Cc2ccc(-c3ccccc3)cc2)(C(=O)O)C(=O)O)[C@@H](O)[C@@H]1F [compound 79, 2-([1,1′-biphenyl]-4-ylmethyl)-2-(((2R,3R,4S,5R)-5-(6-amino-2-chloro-9H-purin-9-yl)-4-fluoro-3-hydroxytetrahydro-furan-2-yl)methoxy)malonic acid]
